Experimental findings from patent US20250134869A1, “Pyrrolo[2,3-d]pyrimidinyl, Pyrrolo[2,3-b]pyrazinyl and Pyrrolo[2,3-d]pyridinyl Acryla-mides” (Pfizer Inc, priority 2021, published 2025) are described below.

The target of this assay is JAK3 enzyme (Homo sapiens (Human), UniProt P52333). Briefly: JAK Caliper Enzyme Assay at 4 μM or 1 mM ATP. In kind it is biochemical. On the procedure: JAK Caliper Enzyme Assay at […] or 1 mM ATP
Test article was solubilized in dimethyl sulfoxide (DMSO) to a stock concentration of 30 mM. An 11-point half log dilution series was created in DMSO with a top concentration of 600 μM. […] The compound plates were diluted 1 to 60 resulting in a top final assay compound concentration of 10 μM and a 2% DMSO concentration.
Test article and assay controls were added to a 384-well plate. Reaction mixtures contained 20 mM HEPES, pH 7.4, 10 mM magnesium chloride, 0.01% bovine serum albumin (BSA), 0.0005% Tween […] or 1 mM ATP and […] peptide substrate. […] The assays were initiated by the addition 1 nM JAK3 enzyme and were incubated at room temperature 75 minutes for JAK3. Enzyme concentrations and incubation times were optimized for each new enzyme preps and were modified slightly over time to ensure 20%-30% phosphorylation. The assays were stopped with a final concentration of 10 mM EDTA, 0.1% Coating Reagent and 100 mM HEPES, pH=7.4. The assay plates were placed on a Caliper Life Science Lab Chip 3000 (LC3000) instrument, and each well was sampled using appropriate separation conditions to measure the unphosphorylated and phosphorylated peptide.

[1] abbreviates: read-out: JAK3 (4 μM ATP) IC50, 4 μM ATP.
Setting [2] is: read-out: JAK3 (1 mM ATP) IC50, 1 mM ATP.

Structures are written as SMILES. pIC50: −log10 of the molar value. Read-outs that look alike come from different tables or passages of the source. A value given as a limit tells only on which side of the number the result lay.

JAK3 enzyme, sequence (P52333 whole entry, species assumed): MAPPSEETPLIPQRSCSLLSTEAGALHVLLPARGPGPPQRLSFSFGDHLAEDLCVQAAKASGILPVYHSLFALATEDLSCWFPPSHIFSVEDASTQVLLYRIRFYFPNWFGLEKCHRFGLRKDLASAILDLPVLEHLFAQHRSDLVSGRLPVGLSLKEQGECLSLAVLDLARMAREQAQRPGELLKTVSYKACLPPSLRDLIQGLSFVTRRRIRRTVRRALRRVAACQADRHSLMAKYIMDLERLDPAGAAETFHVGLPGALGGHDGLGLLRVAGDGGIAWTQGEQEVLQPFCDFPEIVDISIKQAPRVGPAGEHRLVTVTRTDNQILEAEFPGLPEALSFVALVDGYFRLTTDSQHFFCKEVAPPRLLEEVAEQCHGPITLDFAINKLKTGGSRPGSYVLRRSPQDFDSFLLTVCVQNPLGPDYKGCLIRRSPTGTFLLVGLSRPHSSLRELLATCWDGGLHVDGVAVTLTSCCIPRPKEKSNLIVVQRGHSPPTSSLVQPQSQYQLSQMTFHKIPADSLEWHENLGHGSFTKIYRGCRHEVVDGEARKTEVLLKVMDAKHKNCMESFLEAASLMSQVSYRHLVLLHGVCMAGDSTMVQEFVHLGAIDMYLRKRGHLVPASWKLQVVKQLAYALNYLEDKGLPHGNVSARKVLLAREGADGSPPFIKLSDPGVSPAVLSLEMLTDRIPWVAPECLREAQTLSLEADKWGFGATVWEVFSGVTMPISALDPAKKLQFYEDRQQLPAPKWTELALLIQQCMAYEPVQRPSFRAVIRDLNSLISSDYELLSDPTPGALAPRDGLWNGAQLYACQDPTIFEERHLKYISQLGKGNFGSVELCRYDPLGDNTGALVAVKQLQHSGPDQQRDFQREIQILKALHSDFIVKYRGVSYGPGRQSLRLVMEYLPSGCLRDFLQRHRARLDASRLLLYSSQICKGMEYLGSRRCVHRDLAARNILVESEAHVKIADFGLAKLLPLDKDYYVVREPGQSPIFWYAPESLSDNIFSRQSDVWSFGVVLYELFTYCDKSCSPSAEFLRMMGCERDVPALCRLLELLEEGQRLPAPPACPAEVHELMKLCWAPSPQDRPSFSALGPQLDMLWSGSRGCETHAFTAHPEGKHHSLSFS

As a reminder, the pIC50 is the IC50 on a negative log10 scale, so that one unit is a factor of ten. Take `C=CC(=O)N1CCN(c2cnc3[nH]cc(C(=O)NC(C)C)c3n2)C[C@@H]1CC` [Example 299, 2-[(3S)-4-acryloyl-3-ethylpiperazin-1-yl]-N-(propan-2-yl)-5H-pyrrolo[2,3-b]pyrazine-7-carboxamide]: the pIC50 runs as follows: under setting [1], 9.15; under setting [2], 7.25.
For `C=CC(=O)N1CCC[C@@H](Nc2ncnc3[nH]cc(CCC#N)c23)C1` [Example 62, 3-(4-{[(3R)-1-Acryloylpiperidin-3-yl]amino}-7H-pyrrolo[2,3-d]pyrimidin-5-yl)propanenitrile], in that order: 8.05 and 6.19.
On the same counts, the results for `C=CC(=O)N1CCC(Nc2cnc3[nH]cc(C(=O)NCCCC)c3n2)CC1` [Example 269, 2-[(1-acryloylpiperidin-4-yl)amino]-N-butyl-5H-pyrrolo[2,3-b]pyrazine-7-carboxamide] are 9.70 and 8.14.
On the same counts, the results for `C=CC(=O)N1CCN(c2cnc3[nH]cc(C(=O)NC(C)C)c3n2)CC1(C)C` [Example 293, 2-(4-acryloyl-3,3-dimethylpiperazin-1-yl)-N-(propan-2-yl)-5H-pyrrolo[2,3-b]pyrazine-7-carboxamide] are 9.22 and 6.97.
Regarding `C=CC(=O)NC1CN(c2cnc3[nH]ccc3n2)C1` [Example 192, N-[1-(5H-pyrrolo[2,3-b]pyrazin-2-yl)azetidin-3-yl]prop-2-enamide], under setting [1], the pIC50 was 6.57.
For the compound `C=CC(=O)N1CCC[C@@H](Nc2ncnc3[nH]cc(C(=O)NC)c23)C1` [Example 145, 4-{[(3R)-1-acryloylpiperidin-3-yl]amino}-N-methyl-7H-pyrrolo[2,3-d]pyrimidine-5-carboxamide], the pIC50 under setting [1] is 6.95.
For `C=CC(=O)N1CCC(Nc2cnc3[nH]cc(-c4cncnc4)c3n2)CC1` [Example 202, 1-(4-{[7-(pyrimidin-5-yl)-5H-pyrrolo[2,3-b]pyrazin-2-yl]amino}piperidin-1-yl)prop-2-en-1-one], the pIC50 is 9.05 under setting [1] and 7.00 under setting [2].
For `C=CC(=O)N1CCC(Nc2cnc3[nH]cc(C(=O)N[C@@H](C)COC)c3n2)CC1` [Example 277, 2-[(1-acryloylpiperidin-4-yl)amino]-N-[(2S)-1-methoxypropan-2-yl]-5H-pyrrolo[2,3-b]pyrazine-7-carboxamide], in that order: 9.52 and 8.18.
For `C=CC(=O)N1CCN(c2cnc3[nH]cc(C(=O)NC(C)C)c3n2)C[C@@H]1C` [Example 295, 2-[(3S)-4-acryloyl-3-methylpiperazin-1-yl]-N-(propan-2-yl)-5H-pyrrolo[2,3-b]pyrazine-7-carboxamide], in that order: 8.96 and 7.05.
As for `O=C(/C=C\CO)N1CCC[C@@H](Nc2ncnc3[nH]ccc23)C1` [Example 100, (2Z)-4-hydroxy-1-[(3R)-3-(7H-pyrrolo[2,3-d]pyrimidin-4-ylamino)piperidin-1-yl]but-2-en-1-one], the pIC50 was 6.18 under setting [1] and less than 5.00 under setting [2].
For `C=CC(=O)N(C)C1CCN(c2cnc3[nH]cc(C(=O)NC(C)C)c3n2)CC1` [Example 169, 2-{4-[acryloyl(methyl)amino]piperidin-1-yl}-N-(propan-2-yl)-5H-pyrrolo[2,3-b]pyrazine-7-carboxamide], in that order: 7.37 and 5.32.
For `C=CC(=O)N1CCC[C@@H](Nc2ncnc3[nH]cc(-c4ccccc4O)c23)C1` [Example 25, 1-[(3R)-3-{[5-(2-hydroxyphenyl)-7H-pyrrolo[2,3-d]pyrimidin-4-yl]amino}piperidin-1-yl]prop-2-en-1-one], in that order: 8.54 and 6.83.
For `C=CC(=O)N1[C@@H]2CC[C@H]1CN(c1cnc3[nH]cc(C(=O)NC(C)C)c3n1)C2` [Example 301, 2-[(1R,5S)-8-acryloyl-3,8-diazabicyclo[3.2.1]oct-3-yl]-N-(propan-2-yl)-5H-pyrrolo[2,3-b]pyrazine-7-carboxamide], in that order: 9.22 and 7.05.
On to `C=CC(=O)N1CCC(Nc2cnc3[nH]cc(C(=O)NC4CCCC4(F)F)c3n2)CC1` (stereo not drawn) [Example 234, 2-[(1-acryloylpiperidin-4-yl)amino]-N-(2,2-difluorocyclopentyl)-5H-pyrrolo[2,3-b]pyrazine-7-carboxamide], for which the pIC50 was more than 9.52 under setting [1] and 8.31 under setting [2].
For `C=CC(=O)N1CCC(Nc2cnc3[nH]cc(-c4ccnc(C)c4)c3n2)CC1` [Example 201, 1-(4-{[7-(2-methylpyridin-4-yl)-5H-pyrrolo[2,3-b]pyrazin-2-yl]amino}piperidin-1-yl)prop-2-en-1-one], in that order: 9.30 and 7.55.
On to `C=CC(=O)NC[C@@]12C[C@@H]1CN(c1cnc3[nH]ccc3n1)C2` [Example 197, N-{[(1R,5S)-3-(5H-pyrrolo[2,3-b]pyrazin-2-yl)-3-azabicyclo[3.1.0]hex-1-yl]methyl}prop-2-enamide], for which, under setting [1], the pIC50 was 5.46.
In the case of `C=CC(=O)N1C[C@H](C#N)C[C@@H](Nc2ncnc3[nH]ccc23)C1` [Example 6, (3R,5R)-5-((7H-pyrrolo[2,3-d]pyrimidin-4-yl)amino)-1-acryloylpiperidine-3-carbonitrile], the pIC50 under setting [1] was 9.52 and the pIC50 under setting [2] is 7.40.
As for `C=CC(=O)N1CCC(Oc2cnc3[nH]cc(-c4c(C)noc4C)c3n2)CC1` [Example 224, 1-(4-{[7-(3,5-dimethyl-1,2-oxazol-4-yl)-5H-pyrrolo[2,3-b]pyrazin-2-yl]oxy}piperidin-1-yl)prop-2-en-1-one], the pIC50 is 7.75 under setting [1] and 5.81 under setting [2].
In the case of `C=CC(=O)N1CCC(Nc2cnc3[nH]cc(-c4cncc(F)c4)c3n2)CC1` [Example 212, 1-(4-{[7-(5-fluoropyridin-3-yl)-5H-pyrrolo[2,3-b]pyrazin-2-yl]amino}piperidin-1-yl)prop-2-en-1-one], the pIC50 is, setting by setting: under setting [1], 9.52; under setting [2], 7.80.
Take `C=CC(=O)N1CCC[C@@H](Nc2ncnc3[nH]cc(-c4cnc(N5CCOCC5)nc4)c23)C1` [Example 35, 1-[(3R)-3-({5-[2-(morpholin-4-yl)pyrimidin-5-yl]-7H-pyrrolo[2,3-d]pyrimidin-4-yl}amino)piperidin-1-yl]prop-2-en-1-one]: the pIC50 under setting [1] is 7.08.
With `C=CC(=O)N1CCC(Nc2cnc3[nH]cc(C(=O)NCCC(F)(F)F)c3n2)CC1` [Example 246, 2-[(1-acryloylpiperidin-4-yl)amino]-N-(3,3,3-trifluoropropyl)-5H-pyrrolo[2,3-b]pyrazine-7-carboxamide], the pIC50 is 9.52 under setting [1] and 8.19 under setting [2].
On the same counts, the results for `C=CC(=O)N1C[C@@H](C)N(c2cnc3[nH]cc(C(=O)NC(C)C)c3n2)[C@@H](C)C1` [Example 328, 2-[(2R,6S)-4-acryloyl-2,6-dimethylpiperazin-1-yl]-N-(propan-2-yl)-5H-pyrrolo[2,3-b]pyrazine-7-carboxamide] are 8.80 and 6.65.
For `C=CC(=O)N1CCC(Oc2cnc3[nH]cc(C(=O)NC(C)C)c3n2)CC1` [Example 339, 2-((1-Acryloylpiperidin-4-yl)oxy)-N-isopropyl-5H-pyrrolo[2,3-b]pyrazine-7-carboxamide], in that order: 9.70 and 7.76.
For `CS/C=C/C(=O)N1CCC[C@@H](Nc2ncnc3[nH]ccc23)C1` [Example 98, (2E)-3-(methylsulfanyl)-1-[(3R)-3-(7H-pyrrolo[2,3-d]pyrimidin-4-ylamino)piperidin-1-yl]prop-2-en-1-one], in that order: 5.58 and less than 5.00.
For the compound `C=CC(=O)N1C[C@@H](Nc2ncnc3[nH]ccc23)[C@@H]2CC[C@H]1C2` [Example 126, 1-((1S,4S,5R)-4-(7H-pyrrolo[2,3-d]pyrimidin-4-ylamino)-2-azabicyclo[3.2.1]octan-2-yl)prop-2-en-1-one], the pIC50 reads like this: under setting [1], 6.22; under setting [2], less than 5.00.
On to `N#CC(C(=O)N1CCC[C@@H](Nc2ncnc3[nH]ccc23)C1)=C1CCOCC1` [Example 101, 3-oxo-3-[(3R)-3-(7H-pyrrolo[2,3-d]pyrimidin-4-ylamino)piperidin-1-yl]-2-(tetrahydro-4H-pyran-4-ylidene)propanenitrile], for which the pIC50 is, setting by setting: under setting [1], 6.06; under setting [2], less than 5.00.
`C=CC(=O)N1CCC(C)(Nc2cnc3[nH]cc(C(=O)NC(C)C)c3n2)CC1` [Example 318, 2-[(1-acryloyl-4-methylpiperidin-4-yl)amino]-N-(propan-2-yl)-5H-pyrrolo[2,3-b]pyrazine-7-carboxamide]: the negative-log IC50 (pIC50) is 9.52 under setting [1] and 7.67 under setting [2].
`C=CC(=O)N1CCC(Nc2cnc3[nH]cc(C(=O)NCC4(O)CCC(F)(F)CC4)c3n2)CC1` [Example 252b, 2-[(1-acryloylpiperidin-4-yl)amino]-N-[(4,4-difluoro-1-hydroxycyclohexyl)methyl]-5H-pyrrolo[2,3-b]pyrazine-7-carboxamide]: the pIC50 is 9.30 under setting [1] and 7.39 under setting [2].
For `C=CC(=O)N1CCC(Nc2cnc3[nH]cc(C(=O)N[C@H](C(C)C)[C@@H](O)C(F)(F)F)c3n2)CC1` [Example 248, 2-[(1-acryloylpiperidin-4-yl)amino]-N-[(2R,3R)-1,1,1-trifluoro-2-hydroxy-4-methylpentan-3-yl]-5H-pyrrolo[2,3-b]pyrazine-7-carboxamide], in that order: 9.40 and 7.40.
